Values of other authors in patent US8324220B2 (priority 2003, dated 2012).

Legend:
NaV1.3 = NaV1.3 (Homo sapiens, UniProt Q9NY46); conditions: read-out: TTX IC50
NaV1.5 = NaV1.5 (Homo sapiens, UniProt Q14524)
NaV1.6 = NaV1.6 (Homo sapiens, UniProt Q9UQD0); conditions: read-out: TTX IC50
NaV1.8 = NaV1.8 (Homo sapiens, UniProt Q9Y5Y9)
NaV1.9 = NaV1.9 (Homo sapiens, UniProt Q9UI33)
NaV1.1 = NaV1.1 (Homo sapiens, UniProt P35498); conditions: read-out: TTX IC50
NaV1.2 = NaV1.2 (Homo sapiens, UniProt Q99250); conditions: read-out: TTX IC50
neuropathic pain = conditions: human, in vivo

Sequence of NaV1.8 (Q9Y5Y9 whole entry, looked up): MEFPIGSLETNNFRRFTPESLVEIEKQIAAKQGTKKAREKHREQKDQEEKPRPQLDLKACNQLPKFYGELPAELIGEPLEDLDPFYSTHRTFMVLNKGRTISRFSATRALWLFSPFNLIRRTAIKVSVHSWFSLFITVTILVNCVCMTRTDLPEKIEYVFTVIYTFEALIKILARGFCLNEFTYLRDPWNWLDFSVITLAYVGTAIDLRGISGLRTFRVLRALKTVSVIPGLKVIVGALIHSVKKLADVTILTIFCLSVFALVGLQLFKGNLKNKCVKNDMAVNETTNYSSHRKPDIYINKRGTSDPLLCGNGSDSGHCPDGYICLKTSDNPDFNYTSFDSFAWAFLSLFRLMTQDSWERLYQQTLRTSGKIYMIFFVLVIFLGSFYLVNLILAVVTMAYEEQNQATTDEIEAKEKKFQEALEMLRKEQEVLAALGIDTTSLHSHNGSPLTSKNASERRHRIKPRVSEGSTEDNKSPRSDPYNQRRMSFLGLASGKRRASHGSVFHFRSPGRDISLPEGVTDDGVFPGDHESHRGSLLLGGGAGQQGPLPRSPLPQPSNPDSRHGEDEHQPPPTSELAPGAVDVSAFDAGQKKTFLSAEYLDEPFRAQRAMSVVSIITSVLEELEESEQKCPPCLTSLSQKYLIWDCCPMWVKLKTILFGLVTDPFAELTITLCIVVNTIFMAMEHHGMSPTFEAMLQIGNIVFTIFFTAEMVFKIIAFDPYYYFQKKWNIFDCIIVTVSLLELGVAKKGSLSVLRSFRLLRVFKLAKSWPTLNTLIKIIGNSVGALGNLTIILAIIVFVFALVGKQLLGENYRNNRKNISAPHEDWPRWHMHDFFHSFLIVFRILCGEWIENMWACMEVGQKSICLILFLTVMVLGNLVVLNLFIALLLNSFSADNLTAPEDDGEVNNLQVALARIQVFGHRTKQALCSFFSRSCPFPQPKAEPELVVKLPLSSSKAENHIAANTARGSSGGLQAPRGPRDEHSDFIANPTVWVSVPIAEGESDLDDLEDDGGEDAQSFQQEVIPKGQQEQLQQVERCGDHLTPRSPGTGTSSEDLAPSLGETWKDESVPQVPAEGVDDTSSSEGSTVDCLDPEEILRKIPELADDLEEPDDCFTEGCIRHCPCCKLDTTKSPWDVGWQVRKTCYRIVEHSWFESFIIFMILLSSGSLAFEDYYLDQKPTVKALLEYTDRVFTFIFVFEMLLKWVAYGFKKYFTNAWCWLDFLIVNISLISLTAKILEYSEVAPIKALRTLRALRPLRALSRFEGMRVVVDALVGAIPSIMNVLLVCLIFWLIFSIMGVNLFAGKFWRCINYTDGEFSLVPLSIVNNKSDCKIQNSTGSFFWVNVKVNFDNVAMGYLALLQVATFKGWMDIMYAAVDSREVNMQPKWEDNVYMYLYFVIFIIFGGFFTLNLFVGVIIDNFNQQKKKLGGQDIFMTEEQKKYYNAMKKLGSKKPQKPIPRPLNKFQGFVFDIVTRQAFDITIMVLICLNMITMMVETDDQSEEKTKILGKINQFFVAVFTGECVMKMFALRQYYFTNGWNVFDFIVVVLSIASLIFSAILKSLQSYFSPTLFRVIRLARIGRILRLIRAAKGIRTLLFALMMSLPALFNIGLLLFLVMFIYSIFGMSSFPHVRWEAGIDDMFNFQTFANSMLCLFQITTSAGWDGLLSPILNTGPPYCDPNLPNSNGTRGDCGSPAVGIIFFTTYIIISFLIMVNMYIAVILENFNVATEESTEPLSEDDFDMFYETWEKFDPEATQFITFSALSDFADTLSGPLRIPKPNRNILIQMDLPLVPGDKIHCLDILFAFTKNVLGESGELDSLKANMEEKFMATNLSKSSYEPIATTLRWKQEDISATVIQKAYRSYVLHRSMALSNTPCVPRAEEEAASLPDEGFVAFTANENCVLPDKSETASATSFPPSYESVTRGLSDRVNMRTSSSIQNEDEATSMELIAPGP
Sequence of NaV1.9 (Q9UI33 whole entry, looked up): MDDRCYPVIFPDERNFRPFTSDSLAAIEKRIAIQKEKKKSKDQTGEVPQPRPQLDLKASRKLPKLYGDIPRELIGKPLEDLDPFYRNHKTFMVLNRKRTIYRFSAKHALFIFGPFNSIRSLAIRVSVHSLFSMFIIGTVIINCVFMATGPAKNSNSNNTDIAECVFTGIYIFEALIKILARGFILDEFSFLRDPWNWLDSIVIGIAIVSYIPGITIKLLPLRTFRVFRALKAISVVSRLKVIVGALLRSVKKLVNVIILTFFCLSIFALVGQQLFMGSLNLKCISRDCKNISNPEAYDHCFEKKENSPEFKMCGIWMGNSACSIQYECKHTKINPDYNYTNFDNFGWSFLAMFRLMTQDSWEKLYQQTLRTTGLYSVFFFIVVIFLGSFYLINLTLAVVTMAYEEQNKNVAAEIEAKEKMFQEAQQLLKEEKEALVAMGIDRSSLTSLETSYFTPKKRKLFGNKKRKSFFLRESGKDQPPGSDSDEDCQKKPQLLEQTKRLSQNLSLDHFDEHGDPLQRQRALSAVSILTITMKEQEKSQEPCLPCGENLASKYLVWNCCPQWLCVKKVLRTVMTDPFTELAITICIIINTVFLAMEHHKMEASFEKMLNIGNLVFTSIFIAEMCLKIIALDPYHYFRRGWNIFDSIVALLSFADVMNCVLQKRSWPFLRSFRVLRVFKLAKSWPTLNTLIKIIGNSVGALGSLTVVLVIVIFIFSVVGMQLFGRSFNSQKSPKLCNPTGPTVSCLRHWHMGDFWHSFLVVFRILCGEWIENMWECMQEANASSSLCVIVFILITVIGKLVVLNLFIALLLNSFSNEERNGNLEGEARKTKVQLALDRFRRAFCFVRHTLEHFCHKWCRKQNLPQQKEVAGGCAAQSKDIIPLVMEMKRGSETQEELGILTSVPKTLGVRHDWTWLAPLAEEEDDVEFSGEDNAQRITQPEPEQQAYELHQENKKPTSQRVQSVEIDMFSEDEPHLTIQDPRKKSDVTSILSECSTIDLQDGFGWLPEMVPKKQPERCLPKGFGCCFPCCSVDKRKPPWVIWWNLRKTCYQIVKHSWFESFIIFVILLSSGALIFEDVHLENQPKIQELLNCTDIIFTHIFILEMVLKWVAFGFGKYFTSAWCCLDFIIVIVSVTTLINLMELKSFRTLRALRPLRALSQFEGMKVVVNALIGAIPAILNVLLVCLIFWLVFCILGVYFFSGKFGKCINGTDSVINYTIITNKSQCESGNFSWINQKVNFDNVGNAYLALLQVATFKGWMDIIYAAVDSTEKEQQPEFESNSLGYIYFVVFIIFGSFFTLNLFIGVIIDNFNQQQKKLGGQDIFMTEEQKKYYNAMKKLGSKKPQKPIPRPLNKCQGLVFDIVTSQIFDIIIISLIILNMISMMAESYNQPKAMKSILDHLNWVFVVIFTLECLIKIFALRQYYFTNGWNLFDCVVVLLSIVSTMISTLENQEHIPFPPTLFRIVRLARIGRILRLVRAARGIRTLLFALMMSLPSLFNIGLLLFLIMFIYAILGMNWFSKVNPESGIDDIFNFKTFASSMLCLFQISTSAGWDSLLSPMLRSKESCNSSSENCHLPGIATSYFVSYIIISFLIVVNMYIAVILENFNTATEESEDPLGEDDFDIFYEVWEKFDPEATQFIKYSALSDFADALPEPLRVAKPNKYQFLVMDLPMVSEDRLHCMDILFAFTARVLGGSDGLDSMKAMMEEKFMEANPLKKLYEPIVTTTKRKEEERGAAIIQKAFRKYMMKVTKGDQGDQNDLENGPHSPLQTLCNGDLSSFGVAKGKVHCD

Structure (SMILES) | IC50 (NaV1.3) [µM] | block by TTX (NaV1.5) | IC50 (NaV1.6) [µM] | block by TTX (NaV1.8) | IC50 (NaV1.8; read-out: TTX IC50) [µM] | block by TTX (NaV1.9) | IC50 (NaV1.9; read-out: TTX IC50) [µM] | IC50 (NaV1.1) [µM] | IC50 (NaV1.2) [µM] | share of patients in which the drug works (neuropathic pain) [%]
NC1=N[C@H](O)[C@H]2[C@H]3O[C@]4(O)O[C@@H]([C@@H](O)[C@@]2(N1)[C@@H]4O)[C@]3(O)CO [TTX, tetrodotoxin] | 0.015 | resistant to block | 0.006 | resistant to block | > 50 | resistant to block | 1 | 0.01 | 0.01 | –
NCC1(CC(=O)O)CCCCC1 [Gabapentin] | – | – | – | – | – | – | – | – | – | 60
